Patent US20100240537A1, “Substituted 6-(alkylbenzylamino)purine derivatives for use as cytokinin receptor antagonists and preparations containing these derivatives” (priority 2007, published 2010)

Key:
Type in all cases: cell-based
CRE1/AHK4 = biological target: T1, CRE1/AHK4 (Arabidopsis thaliana, UniProt Q9C5U0); test: Activation of cytokinin receptor CRE1/AHK4 in E. coli KMI001 (β-galactosidase reporter); details: E. coli KMI001 pIN-III-AHK4, 17 h incubation; n.i. means without interaction
T1 construct: expressed in transfected cells; host or cells: Escherichia coli KMI001, plasmid pIN-III-AHK4
Experimental: (§1) Escherichia coli strains KMI001 harbouring the plasmid pIN-III-AHK4 or pSTV28-AHK3 were grown overnight at 25° C. in M9 media enriched with 0.1% casamino acids to OD600˜1. The preculture was diluted 1:600 in 1 ml M9 medium containing 0.1% casamino acids and 1 μl stock solution of either the tested compound (10^−7 M−5×10^−5 M) or solvent control (DMSO, ethanol, methanol) were added. The cultures were further grown at 25° C. in microtiter plate, 200 μl per well. […] The cultures were centrifuged and 50 μl aliquots of the supernatant were transferred to microtiter plate containing 2 μl 50 mM 4-methyl umbelliferyl galactoside which was subsequently incubated for 1 h at 37° C. The reaction was stopped by adding 100 μl 0.2 M Na2CO3. Fluorescence was measured using a Fluoroscan Ascent (Labsystems, Finland) at the excitation and emission wavelengths of 365 and 460 nm, respectively. The OD600 of remaining culture was determined and β-galactosidase activity was calculated as nmol 4-methylumbelliferone×OD600^−1×h^−1.
(§2) The EC50 value, the compound concentration activating the receptor to 50%, was calculated from the obtained dose response curves. The compound functioning as cytokinin antagonists should not activate cytokinin signalling pathway. The values shown in Table 2 are means of three replicates and the entire test was repeated at least twice.

AHK3 = biological target: T2, AHK3 (Arabidopsis thaliana, UniProt Q9C5U1); test: Activation of cytokinin receptor AHK3 in E. coli KMI001 (β-galactosidase reporter); details: E. coli KMI001 pSTV28-AHK3, 28 h incubation, n.i. means without interaction
T2 construct: expressed in transfected cells; host or cells: Escherichia coli KMI001, plasmid pSTV28-AHK3
T2 sequence (Q9C5U1 1-1036): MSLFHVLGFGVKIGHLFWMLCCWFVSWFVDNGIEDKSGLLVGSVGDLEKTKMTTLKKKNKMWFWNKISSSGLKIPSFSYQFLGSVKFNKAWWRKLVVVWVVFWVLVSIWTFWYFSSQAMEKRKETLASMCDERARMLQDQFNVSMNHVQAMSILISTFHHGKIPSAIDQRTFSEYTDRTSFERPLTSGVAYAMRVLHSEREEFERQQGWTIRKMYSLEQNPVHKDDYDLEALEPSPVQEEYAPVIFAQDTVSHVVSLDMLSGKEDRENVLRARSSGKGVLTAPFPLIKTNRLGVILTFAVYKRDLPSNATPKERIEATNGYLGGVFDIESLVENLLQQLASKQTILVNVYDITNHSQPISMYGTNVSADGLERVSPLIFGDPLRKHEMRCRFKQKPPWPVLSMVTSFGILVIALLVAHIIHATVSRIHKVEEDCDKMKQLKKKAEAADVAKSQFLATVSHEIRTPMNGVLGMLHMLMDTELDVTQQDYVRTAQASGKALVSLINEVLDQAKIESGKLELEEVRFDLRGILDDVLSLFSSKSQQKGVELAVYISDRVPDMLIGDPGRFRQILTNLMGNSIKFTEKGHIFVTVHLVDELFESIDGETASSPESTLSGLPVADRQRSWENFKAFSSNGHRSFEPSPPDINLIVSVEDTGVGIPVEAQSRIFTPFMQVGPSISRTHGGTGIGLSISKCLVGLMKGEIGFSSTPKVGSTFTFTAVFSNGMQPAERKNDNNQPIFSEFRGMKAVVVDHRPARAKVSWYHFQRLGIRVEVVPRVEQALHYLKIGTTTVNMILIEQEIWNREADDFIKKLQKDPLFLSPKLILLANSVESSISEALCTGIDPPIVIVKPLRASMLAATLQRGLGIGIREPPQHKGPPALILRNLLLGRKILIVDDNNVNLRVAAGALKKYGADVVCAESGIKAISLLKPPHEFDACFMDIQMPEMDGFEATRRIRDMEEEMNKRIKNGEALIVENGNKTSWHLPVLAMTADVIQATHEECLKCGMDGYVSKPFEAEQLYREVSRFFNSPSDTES
Experimental: as §1, §2

[1] = tested on: cytokinin-dependent tobacco callus Nicotiana tabacum L. cv. Wisconsin 38; test: Cytokinin-dependent tobacco callus bioassay; details: for activity (%) [10^−6 mol · l^−1 BA = 100%]: at concentration with highest activity, n.a. means inactive; for concentration with highest activity: callus fresh weight after four weeks
Experimental: Stimulatory effect of newly prepared derivatives was tested using cytokinin-dependent tobacco callus. The cytokinin-dependent tobacco callus Nicotiana tabacum L. cv. Wisconsin 38 was maintained at 25° C. in darkness on modified MS medium, containing per 1 liter: 4 μmol of nicotinic acid, 2.4 μmol of pyridoxine hydrochloride, 1.2 μmol of thiamine, 26.6 μmol of glycine, 1.37 μmol of glutamine, 1.8 μmol of myo-inositol, 30 g of sucrose, 8 g of agar, 5.37 μmol of NAA and 0.5 μmol of the compound tested. Subcultivation was carried out every three weeks. Fourteen days before the bioassay, the callus tissue was transferred to the media without 6-benzylaminopurine. The biological activity was determined from the increase of the fresh callus weight after four weeks of cultivation. Five replicates were prepared for each concentration of the compound tested and the entire test was repeated twice. […] The compounds to be tested were dissolved in dimethylsulfoxide (DMSO) and the solution brought up to 10^−3M with distilled water. This stock solution was further diluted with the respective media used for the biotest to a concentration ranging from 10^−8M to 10^−4M.
From the obtained data, the concentration with the highest activity was selected for each compound tested. Relative activity of the compound at this concentration was calculated (Table 3). The activity obtained for 10^−6 M of the control substance 6-benzylaminopurine was postulated as 100% biological activity. […]

T1 sequence (Q9C5U0 whole entry): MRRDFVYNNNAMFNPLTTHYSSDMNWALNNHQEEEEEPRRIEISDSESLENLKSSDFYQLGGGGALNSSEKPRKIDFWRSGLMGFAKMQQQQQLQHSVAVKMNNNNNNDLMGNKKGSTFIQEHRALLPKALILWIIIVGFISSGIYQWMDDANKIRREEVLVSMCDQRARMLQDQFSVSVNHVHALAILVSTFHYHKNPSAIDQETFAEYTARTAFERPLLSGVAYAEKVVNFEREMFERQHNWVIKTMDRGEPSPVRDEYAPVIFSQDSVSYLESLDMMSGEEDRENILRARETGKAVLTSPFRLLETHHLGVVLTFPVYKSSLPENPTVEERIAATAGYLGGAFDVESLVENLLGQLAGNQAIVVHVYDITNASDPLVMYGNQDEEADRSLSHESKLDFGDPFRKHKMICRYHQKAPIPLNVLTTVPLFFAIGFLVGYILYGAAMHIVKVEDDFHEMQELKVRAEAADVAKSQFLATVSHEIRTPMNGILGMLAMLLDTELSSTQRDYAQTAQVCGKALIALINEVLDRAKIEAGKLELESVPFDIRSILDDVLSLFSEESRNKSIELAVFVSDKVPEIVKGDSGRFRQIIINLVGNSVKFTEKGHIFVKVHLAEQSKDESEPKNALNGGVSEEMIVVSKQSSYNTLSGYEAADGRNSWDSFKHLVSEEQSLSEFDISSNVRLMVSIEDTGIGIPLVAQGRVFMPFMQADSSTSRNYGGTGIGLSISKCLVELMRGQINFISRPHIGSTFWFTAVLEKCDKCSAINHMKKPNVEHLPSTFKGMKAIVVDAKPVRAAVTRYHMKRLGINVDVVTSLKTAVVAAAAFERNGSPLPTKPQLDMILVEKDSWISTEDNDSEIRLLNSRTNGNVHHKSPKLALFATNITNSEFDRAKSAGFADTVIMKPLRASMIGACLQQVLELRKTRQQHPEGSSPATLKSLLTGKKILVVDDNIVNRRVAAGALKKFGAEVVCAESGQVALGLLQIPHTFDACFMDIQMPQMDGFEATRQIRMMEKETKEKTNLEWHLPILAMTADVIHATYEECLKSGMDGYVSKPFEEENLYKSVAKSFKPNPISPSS

| Compound | EC50 CRE1/AHK4 (activation of cytokinin receptor) (CRE1/AHK4) | EC50 AHK3 (activation of cytokinin receptor) (AHK3) | activity (%) [10^−6 mol · l^−1 BA = 100%] [1] | concentration with highest activity [1] | EC50 (AHK3; read-out: EC50 AHK3 (activation of cytokinin receptor)) [µM] |
| --- | --- | --- | --- | --- | --- |
| 6-(2-thio-5-methylbenzylamino)purine [Compound 19] | n.i. | n.i | 1.3 (±1) % | 10^−4 mol.l^−1 | – |
| Cc1cccc(CNc2ncnc3nc[nH]c23)c1N [Compound 1, 6-(2-amino-3-methylbenzylamino)purine] | n.i. | n.i | – | – | – |
| Cc1ccc(CNc2ncnc3nc[nH]c23)c(N)c1 [Compound 2, 6-(2-amino-4-methylbenzylamino)purine] | n.i. | n.i | – | – | – |
| Cc1ccc(N)c(CNc2ncnc3nc[nH]c23)c1 [Compound 3, 6-(2-amino-5-methylbenzylamino)purine] | n.i. | n.i | – | – | – |
| CCc1cccc(CNc2ncnc3nc[nH]c23)c1N [Compound 4, 6-(2-amino-3-ethylbenzylamino)purine] | n.i. | n.i | – | – | – |
| CCc1ccc(N)c(CNc2ncnc3nc[nH]c23)c1 [Compound 5, 6-(2-amino-5-ethylbenzylamino)purine] | n.i. | n.i | – | – | – |
| Cc1ccc(CNc2ncnc3nc[nH]c23)c(O)c1 [Compound 9, 6-(2-hydroxy-4-methylbenzylamino)purine] | n.i. | n.i | – | – | – |
| Cc1cccc(O)c1CNc1ncnc2nc[nH]c12 [Compound 11, 6-(2-hydroxy-6-methylbenzylamino)purine] | n.i. | n.i | 23 (±5) % | 10^−4 mol.l^−1 | – |
| CCc1cccc(CNc2ncnc3nc[nH]c23)c1O [Compound 12, 6-(2-hydroxy-3-ethylbenzylamino)purine] | n.i. | n.i | – | – | – |
| CCc1ccc(O)c(CNc2ncnc3nc[nH]c23)c1 [Compound 13, 6-(2-hydroxy-5-ethylbenzylamino)purine] | n.i. | n.i | – | – | – |
| Cc1cccc(CNc2ncnc3nc[nH]c23)c1[N+](=O)[O-] [Compound 15, 6-(2-nitro-3-methylbenzylamino)purine] | n.i. | – | – | – | > 100 |
| Cc1ccc([N+](=O)[O-])c(CNc2ncnc3nc[nH]c23)c1 [Compound 16, 6-(2-nitro-5-methylbenzylamino)purine] | n.i. | n.i | – | – | – |
| CCc1cccc(CNc2ncnc3nc[nH]c23)c1[N+](=O)[O-] [Compound 17, 6-(2-nitro-3-ethylbenzylamino)purine] | n.i. | n.i | – | – | – |
| Cc1cc(C)c(N)c(CNc2ncnc3nc[nH]c23)c1 [Compound 21, 6-(2-amino-3,5-dimethylbenzylamino)purine] | n.i. | n.i | – | – | – |
| Cc1cc(C)c(O)c(CNc2ncnc3nc[nH]c23)c1 [Compound 23, 6-(2-hydroxy-3,5-dimethylbenzylamino)purine] | n.i. | n.i | – | – | – |
| Cc1ccc(CNc2ncnc3nc[nH]c23)c(O)c1C [Compound 24, 6-(2-hydroxy-3,4-dimethylbenzylamino)purine] | n.i. | n.i | – | – | – |
